# Laboratory results reported in ChEMBL document CHEMBL1121806, “Inhibition of the renin-angiotensin system. A new approach to the therapy of hypertension” (J Med Chem, 1981).
# Starred links: 1 amine or outer side, 2 acyl side, 3 side chain; linkers in the order of their positions; H or OH if unused. Non-standard residues stand in square brackets, D forms with d. Residues, ends and D or L forms follow the SMILES beside them. ξ: configuration not given here. *: point of attachment. Sta(3ξ) = CC(C)C[C@H](N[*:1])C(O)CC(=O)[*:2]; Isovaleryl = CC(C)CC(=O)*
# T1: Renin (Homo sapiens, UniProt P00797)
# T1 sequence (P00797 whole entry): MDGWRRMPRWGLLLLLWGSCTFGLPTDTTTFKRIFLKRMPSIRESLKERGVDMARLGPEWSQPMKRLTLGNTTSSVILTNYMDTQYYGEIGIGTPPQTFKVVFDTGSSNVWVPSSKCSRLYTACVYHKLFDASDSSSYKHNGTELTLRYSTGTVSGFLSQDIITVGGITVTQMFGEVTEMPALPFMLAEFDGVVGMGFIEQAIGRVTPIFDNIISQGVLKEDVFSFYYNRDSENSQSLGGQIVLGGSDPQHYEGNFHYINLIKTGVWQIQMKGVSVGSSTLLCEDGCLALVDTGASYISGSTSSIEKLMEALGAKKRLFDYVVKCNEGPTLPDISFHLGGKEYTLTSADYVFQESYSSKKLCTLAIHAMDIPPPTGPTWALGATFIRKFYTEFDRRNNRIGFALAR
# Substrate: CC[C@H](C)[C@H](NC(=O)[C@H](Cc1ccc(O)cc1)NC(=O)[C@@H](NC(=O)[C@H](CCCN=C(N)N)NC(=O)[C@@H](N)CC(=O)O)C(C)C)C(=O)N[C@@H](Cc1c[nH]cn1)C(=O)N1CCC[C@H]1C(=O)N[C@@H](Cc1ccccc1)C(=O)N[C@@H](Cc1c[nH]cn1)C(=O)N[C@@H](CC(C)C)C(=O)O
# Assay: The compound was tested for its antihypertensive activity against human renin
# Type: functional
row,Molecule,Km
1,"Renin (Homo sapiens), P00797 (protein) MDGWRRMPRWGLLLLLWGSCTFGLPTDTTTFKRIFLKRMPSIRESLKERGVDMARLGPEWSQPMKRLTLGNTTSSVILTNYMDTQYYGEIGIGTPPQTFKVVFDTGSSNVWVPSSKCSRLYTACVYHKLFDASDSSSYKHNGTELTLRYSTGTVSGFLSQDIITVGGITVTQMFGEVTEMPALPFMLAEFDGVVGMGFIEQAIGRVTPIFDNIISQGVLKEDVFSFYYNRDSENSQSLGGQIVLGGSDPQHYEGNFHYINLIKTGVWQIQMKGVSVGSSTLLCEDGCLALVDTGASYISGSTSSIEKLMEALGAKKRLFDYVVKCNEGPTLPDISFHLGGKEYTLTSADYVFQESYSSKKLCTLAIHAMDIPPPTGPTWALGATFIRKFYTEFDRRNNRIGFALAR",50 µM

# Target: T1, Renin
# Assay: Antihypertensive activity against human renin
row,Molecule,Ki
1,CC(C)C[C@H](NC(=O)[C@H](Cc1cnc[nH]1)NC(=O)[C@H](Cc1ccccc1)NC(=O)[C@H]1CCCN1C(=O)[C@H](Cc1cnc[nH]1)NC(=O)[C@H]1CCCN1)C(=O)N[C@@H](Cc1ccccc1)C(=O)N[C@H](C(=O)N[C@@H](Cc1ccc(O)cc1)C(=O)O)C(C)C,4000 nM
2,C[C@H](CC(=O)O)C(=O)N1CCC[C@H]1C(=O)O,2500 nM
3,C[C@H](CC(=O)NO)C(=O)N1CCC[C@H]1C(=O)O,600 nM
4,C[C@H](NP(=O)(O)Oc1ccccc1)C(=O)N1CCC[C@H]1C(=O)O,1 nM
5,COC(=O)[C@H](CCCN=C(N)N)NC(=O)CC(O)[C@H](CC(C)C)NC(=O)[C@H](C)NC(=O)CC(O)[C@H](CC(C)C)NC(=O)[C@@H](NC(=O)[C@@H](NC(=O)CC(C)C)C(C)C)C(C)C (some centres undefined) (Isovaleryl-VV[Sta(3ξ)]A[Sta(3ξ)]R-OMe),300 nM
6,C[C@@H](NC(=O)[C@H](Cc1ccccc1)NP(=O)(O)Oc1ccccc1)C(=O)O,2200 nM

# Continued, values first:
row,Ki,Molecule
1,800 nM,H-EWPRPQIPP-OH
2,1000 nM,CC(C)[C@H](NC(=O)[C@H](Cc1ccccc1)NC(=O)[C@H](Cc1ccccc1)NC(=O)[C@H](Cc1c[nH]cn1)NC(=O)[C@H](Cc1ccccc1)NC(=O)[C@H]1CCCN1C(=O)[C@H](Cc1c[nH]cn1)NC(=O)[C@H]1CCCN1)C(=O)N[C@@H](Cc1ccc(O)cc1)C(=O)O
3,1.7 nM,C[C@H](CS)C(=O)N1CCC[C@H]1C(=O)O [CAPTOPRIL]
4,800 nM,C[C@H](CCC(=O)O)C(=O)N1CCC[C@H]1C(=O)O
5,1.2 nM,C[C@H](NC(CCc1ccccc1)C(=O)O)C(=O)N1CCC[C@H]1C(=O)O (some centres undefined)
6,42000 nM,CC(C)C[C@H](NC(=O)[C@H](Cc1cnc[nH]1)NC(=O)[C@H](Cc1ccccc1)NC(=O)[C@H]1CCCN1C(=O)[C@H](Cc1cnc[nH]1)NC(=O)[C@H]1CCCN1)C(=O)N[C@@H](CC(C)C)C(=O)N[C@H](C(=O)N[C@@H](Cc1ccc(O)cc1)C(=O)O)C(C)C
7,100 nM,CC(C)CC(=O)N[C@H](C(=O)N[C@H](C(=O)N[C@@H](CC(C)C)C(O)CC(=O)N[C@@H](C)C(=O)N[C@@H](CC(C)C)C(O)CC(=O)N[C@@H](CCCN=C(N)N)C(=O)O)C(C)C)C(C)C (some centres undefined) (Isovaleryl-VV[Sta(3ξ)]A[Sta(3ξ)]R-OH)
